{"source": "PubChem BioAssay (NCI)", "assay_in_all_cases": "inhibition of tumour cell growth, NCI panel, 48 h", "key": {"[1]": {"test_system": "MALME-3M melanoma"}, "[2]": {"test_system": "HOP-92 NSCLC"}, "[3]": {"test_system": "RPMI-8226 leukemia"}, "[4]": {"test_system": "OVCAR-8 ovarian"}, "[5]": {"test_system": "SK-MEL-5 melanoma"}, "[6]": {"test_system": "M14 melanoma"}, "[7]": {"test_system": "KM12 colon"}, "[8]": {"test_system": "UACC-62 melanoma"}, "[9]": {"test_system": "LOX IMVI melanoma"}, "[10]": {"test_system": "SR leukemia"}}, "note": "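In this assay, cells in 96-well plates receive the compound at five concentrations for 48 hours. Endpoints are linearly interpolated between the surrounding concentrations. At the GI50, growth is halved. The concentration for full growth arrest is given as TGI.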"}
{"smiles": "Cc1ccc(C(=O)Nc2ccc(CN3CCN(C)CC3)c(C(F)(F)F)c2)cc1C#Cc1cnc(N)c2ccc(C#N)cc12", "values": [{"measurement": "GI50", "setting": "[1]", "value": 0.0237, "unit": "µM"}, {"measurement": "TGI", "setting": "[1]", "value": 0.694, "unit": "µM"}, {"measurement": "GI50", "setting": "[2]", "value": 0.0134, "unit": "µM"}, {"measurement": "TGI", "setting": "[2]", "value": 0.714, "unit": "µM"}, {"measurement": "GI50", "setting": "[3]", "value": 1080, "unit": "nM"}, {"measurement": "TGI", "setting": "[3]", "value": 19.4, "unit": "µM"}, {"measurement": "GI50", "setting": "[4]", "value": 541, "unit": "nM"}, {"measurement": "TGI", "setting": "[4]", "value": "> 11.7", "unit": "µM"}, {"measurement": "GI50", "setting": "[5]", "value": 331, "unit": "nM"}, {"measurement": "TGI", "setting": "[5]", "value": 6.1, "unit": "µM"}, {"measurement": "GI50", "setting": "[6]", "value": 23.4, "unit": "nM"}, {"measurement": "TGI", "setting": "[6]", "value": 2.34, "unit": "µM"}, {"measurement": "GI50", "setting": "[7]", "value": 304, "unit": "nM"}, {"measurement": "TGI", "setting": "[7]", "value": 17.4, "unit": "µM"}, {"measurement": "GI50", "setting": "[8]", "value": 21.2, "unit": "nM"}, {"measurement": "TGI", "setting": "[8]", "value": 3.64, "unit": "µM"}, {"measurement": "GI50", "setting": "[9]", "value": 41.9, "unit": "nM"}, {"measurement": "TGI", "setting": "[9]", "value": 6.79, "unit": "µM"}, {"measurement": "GI50", "setting": "[10]", "value": 135, "unit": "nM"}]}
{"smiles": "Cc1cc(C)nc(NS(=O)(=O)c2ccc(Nc3nc4nc(NCc5ccccc5)nc(-c5ccc(O)cc5)c4c(=O)[nH]3)cc2)n1", "values": [{"measurement": "GI50", "setting": "[1]", "value": 32.8, "unit": "µM"}, {"measurement": "TGI", "setting": "[1]", "value": "> 100", "unit": "µM"}, {"measurement": "GI50", "setting": "[2]", "value": 14.6, "unit": "µM"}, {"measurement": "TGI", "setting": "[2]", "value": 61.3, "unit": "µM"}, {"measurement": "GI50", "setting": "[3]", "value": "> 100000", "unit": "nM"}, {"measurement": "TGI", "setting": "[3]", "value": "> 100", "unit": "µM"}, {"measurement": "GI50", "setting": "[4]", "value": 36500, "unit": "nM"}, {"measurement": "TGI", "setting": "[4]", "value": "> 100", "unit": "µM"}, {"measurement": "GI50", "setting": "[5]", "value": 25700, "unit": "nM"}, {"measurement": "TGI", "setting": "[5]", "value": "> 100", "unit": "µM"}, {"measurement": "GI50", "setting": "[6]", "value": 37500, "unit": "nM"}, {"measurement": "TGI", "setting": "[6]", "value": "> 100", "unit": "µM"}, {"measurement": "GI50", "setting": "[7]", "value": 15500, "unit": "nM"}, {"measurement": "TGI", "setting": "[7]", "value": "> 100", "unit": "µM"}, {"measurement": "GI50", "setting": "[8]", "value": 25200, "unit": "nM"}, {"measurement": "TGI", "setting": "[8]", "value": "> 100", "unit": "µM"}, {"measurement": "GI50", "setting": "[9]", "value": 25200, "unit": "nM"}, {"measurement": "TGI", "setting": "[9]", "value": "> 100", "unit": "µM"}, {"measurement": "GI50", "setting": "[10]", "value": 17900, "unit": "nM"}, {"measurement": "TGI", "setting": "[10]", "value": 81.3, "unit": "µM"}]}
{"smiles": "COc1ccc2c3c(ccc2c1)NC(C(=O)O)CC3", "note": "(configuration not stated)", "values": [{"measurement": "TGI", "setting": "[1]", "value": "> 100", "unit": "µM"}, {"measurement": "TGI", "setting": "[2]", "value": "> 100", "unit": "µM"}, {"measurement": "TGI", "setting": "[3]", "value": 54.1, "unit": "µM"}, {"measurement": "TGI", "setting": "[4]", "value": "> 100", "unit": "µM"}, {"measurement": "TGI", "setting": "[5]", "value": 64.7, "unit": "µM"}, {"measurement": "TGI", "setting": "[6]", "value": "> 100", "unit": "µM"}, {"measurement": "TGI", "setting": "[7]", "value": "> 100", "unit": "µM"}, {"measurement": "TGI", "setting": "[8]", "value": "> 100", "unit": "µM"}, {"measurement": "TGI", "setting": "[9]", "value": "> 100", "unit": "µM"}, {"measurement": "TGI", "setting": "[10]", "value": 58.4, "unit": "µM"}]}
{"smiles": "Cc1ccccc1NC(=O)N/C(N)=N/c1nc(C)c(C)s1", "values": [{"measurement": "GI50", "setting": "[1]", "value": 3.54, "unit": "µM"}, {"measurement": "TGI", "setting": "[1]", "value": "> 100", "unit": "µM"}, {"measurement": "GI50", "setting": "[2]", "value": 30, "unit": "µM"}, {"measurement": "TGI", "setting": "[2]", "value": "> 100", "unit": "µM"}, {"measurement": "GI50", "setting": "[3]", "value": 390, "unit": "nM"}, {"measurement": "TGI", "setting": "[3]", "value": "> 100", "unit": "µM"}, {"measurement": "GI50", "setting": "[4]", "value": 512, "unit": "nM"}, {"measurement": "TGI", "setting": "[4]", "value": "> 79.6", "unit": "µM"}, {"measurement": "GI50", "setting": "[5]", "value": 282, "unit": "nM"}, {"measurement": "TGI", "setting": "[5]", "value": "> 100", "unit": "µM"}, {"measurement": "GI50", "setting": "[6]", "value": 121, "unit": "nM"}, {"measurement": "TGI", "setting": "[6]", "value": "> 100", "unit": "µM"}, {"measurement": "GI50", "setting": "[7]", "value": 206, "unit": "nM"}, {"measurement": "TGI", "setting": "[7]", "value": "> 100", "unit": "µM"}, {"measurement": "GI50", "setting": "[8]", "value": 179, "unit": "nM"}, {"measurement": "TGI", "setting": "[8]", "value": "> 100", "unit": "µM"}, {"measurement": "GI50", "setting": "[9]", "value": 444, "unit": "nM"}, {"measurement": "TGI", "setting": "[9]", "value": "> 100", "unit": "µM"}, {"measurement": "GI50", "setting": "[10]", "value": 43.8, "unit": "nM"}, {"measurement": "TGI", "setting": "[10]", "value": "> 100", "unit": "µM"}]}
{"smiles": "COc1ccc(C2CC(c3ccc4ccccc4c3)=NN2/C=C2\\SC(=S)N(NC(=O)Cc3ccccc3Nc3c(Cl)cccc3Cl)C2=O)cc1", "note": "(configuration not stated)", "values": [{"measurement": "GI50", "setting": "[1]", "value": 1.34, "unit": "µM"}, {"measurement": "TGI", "setting": "[1]", "value": "> 49", "unit": "µM"}, {"measurement": "GI50", "setting": "[2]", "value": 1.27, "unit": "µM"}, {"measurement": "TGI", "setting": "[2]", "value": "> 53.4", "unit": "µM"}, {"measurement": "GI50", "setting": "[3]", "value": 309, "unit": "nM"}, {"measurement": "TGI", "setting": "[3]", "value": 1.78, "unit": "µM"}, {"measurement": "GI50", "setting": "[4]", "value": 693, "unit": "nM"}, {"measurement": "TGI", "setting": "[4]", "value": "> 100", "unit": "µM"}, {"measurement": "GI50", "setting": "[5]", "value": 484, "unit": "nM"}, {"measurement": "TGI", "setting": "[5]", "value": "> 36.9", "unit": "µM"}, {"measurement": "GI50", "setting": "[6]", "value": 400, "unit": "nM"}, {"measurement": "TGI", "setting": "[6]", "value": 5.4, "unit": "µM"}, {"measurement": "GI50", "setting": "[7]", "value": 370, "unit": "nM"}, {"measurement": "TGI", "setting": "[7]", "value": "> 33.5", "unit": "µM"}, {"measurement": "GI50", "setting": "[8]", "value": 606, "unit": "nM"}, {"measurement": "TGI", "setting": "[8]", "value": "> 43.8", "unit": "µM"}, {"measurement": "GI50", "setting": "[9]", "value": 556, "unit": "nM"}, {"measurement": "TGI", "setting": "[9]", "value": "> 54", "unit": "µM"}, {"measurement": "GI50", "setting": "[10]", "value": 309, "unit": "nM"}, {"measurement": "TGI", "setting": "[10]", "value": "> 100", "unit": "µM"}]}
{"smiles": "O=C(/C=C/c1ccc[nH]1)c1ccccc1", "values": [{"measurement": "TGI", "setting": "[1]", "value": "> 100", "unit": "µM"}, {"measurement": "TGI", "setting": "[2]", "value": "> 100", "unit": "µM"}, {"measurement": "TGI", "setting": "[3]", "value": "> 100", "unit": "µM"}, {"measurement": "TGI", "setting": "[4]", "value": "> 100", "unit": "µM"}, {"measurement": "TGI", "setting": "[5]", "value": "> 100", "unit": "µM"}, {"measurement": "TGI", "setting": "[6]", "value": "> 100", "unit": "µM"}, {"measurement": "TGI", "setting": "[7]", "value": "> 100", "unit": "µM"}, {"measurement": "TGI", "setting": "[8]", "value": "> 100", "unit": "µM"}, {"measurement": "TGI", "setting": "[9]", "value": "> 100", "unit": "µM"}, {"measurement": "TGI", "setting": "[10]", "value": "> 100", "unit": "µM"}]}
{"smiles": "Cc1c(C)n(CC(O)CNC2CCCCC2C)c2ccccc12", "note": "(configuration not stated)", "values": [{"measurement": "GI50", "setting": "[1]", "value": 14.2, "unit": "µM"}, {"measurement": "TGI", "setting": "[1]", "value": 30.1, "unit": "µM"}, {"measurement": "GI50", "setting": "[2]", "value": 4.76, "unit": "µM"}, {"measurement": "TGI", "setting": "[2]", "value": 17.8, "unit": "µM"}, {"measurement": "GI50", "setting": "[3]", "value": 9480, "unit": "nM"}, {"measurement": "TGI", "setting": "[3]", "value": 28.6, "unit": "µM"}, {"measurement": "GI50", "setting": "[4]", "value": 16200, "unit": "nM"}, {"measurement": "TGI", "setting": "[4]", "value": 31.2, "unit": "µM"}, {"measurement": "GI50", "setting": "[5]", "value": 12600, "unit": "nM"}, {"measurement": "TGI", "setting": "[5]", "value": 25.4, "unit": "µM"}, {"measurement": "GI50", "setting": "[7]", "value": 15300, "unit": "nM"}, {"measurement": "TGI", "setting": "[7]", "value": 28.9, "unit": "µM"}, {"measurement": "GI50", "setting": "[8]", "value": 14800, "unit": "nM"}, {"measurement": "TGI", "setting": "[8]", "value": 29, "unit": "µM"}, {"measurement": "GI50", "setting": "[9]", "value": 14800, "unit": "nM"}, {"measurement": "TGI", "setting": "[9]", "value": 28, "unit": "µM"}, {"measurement": "GI50", "setting": "[10]", "value": 12400, "unit": "nM"}, {"measurement": "TGI", "setting": "[10]", "value": 34.1, "unit": "µM"}]}
